Experimental data: ChEMBL document CHEMBL1146708, “4-Amino cyclohexylglycine analogues as potent dipeptidyl peptidase IV inhibitors” (Bioorg Med Chem Lett, 2004)

Key:
[1] = target: Voltage-gated inwardly rectifying potassium channel KCNH2 (Homo sapiens, UniProt Q12809); test: Binding affinity for Potassium channel HERG Kv11.1
[2] = Plasma clearance in rats; type: ADME, organism-based; details: rat, read-out: Clp
[3] = Half life in rats; type: ADME, organism-based; details: rat, in vivo
[4] = Oral bioavailability in rat; type: ADME, organism-based; details: in vivo
Dipeptidyl peptidase 2 = Dipeptidyl peptidase 2 (Homo sapiens, UniProt Q9UHL4); test: Inhibitory activity against quiescent cell prolyl peptidase (QPP).
Dipeptidyl peptidase 4 = Dipeptidyl peptidase 4 (Homo sapiens, UniProt P27487)
Dipeptidyl peptidase 4, sequence (P27487 whole entry): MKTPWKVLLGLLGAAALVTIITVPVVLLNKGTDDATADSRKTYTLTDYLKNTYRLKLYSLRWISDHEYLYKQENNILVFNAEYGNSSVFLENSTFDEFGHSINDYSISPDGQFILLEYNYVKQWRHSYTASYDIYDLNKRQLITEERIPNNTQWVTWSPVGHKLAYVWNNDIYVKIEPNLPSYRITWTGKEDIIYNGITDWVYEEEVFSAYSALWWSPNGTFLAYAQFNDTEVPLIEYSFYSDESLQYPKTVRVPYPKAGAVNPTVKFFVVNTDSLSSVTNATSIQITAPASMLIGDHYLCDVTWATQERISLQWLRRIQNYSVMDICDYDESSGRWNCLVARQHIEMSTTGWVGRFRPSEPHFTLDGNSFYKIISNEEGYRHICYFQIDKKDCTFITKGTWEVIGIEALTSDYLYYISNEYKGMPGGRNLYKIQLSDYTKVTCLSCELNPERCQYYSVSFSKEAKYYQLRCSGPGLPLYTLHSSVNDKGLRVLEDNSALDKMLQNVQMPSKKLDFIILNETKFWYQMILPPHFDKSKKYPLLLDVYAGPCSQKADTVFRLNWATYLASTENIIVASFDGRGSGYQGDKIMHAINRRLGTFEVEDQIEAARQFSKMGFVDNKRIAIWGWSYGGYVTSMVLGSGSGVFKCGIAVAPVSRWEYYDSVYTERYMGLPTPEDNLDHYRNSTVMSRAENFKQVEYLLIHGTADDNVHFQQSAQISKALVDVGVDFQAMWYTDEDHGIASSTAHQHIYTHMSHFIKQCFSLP

[5] = Half life in dogs; type: ADME, organism-based, Canis lupus familiaris; details: dog, in vivo
[6] = Clearance in dogs; type: ADME, organism-based, Canis lupus familiaris; details: dog, in vivo
Mus musculus = species on record: Mus musculus; test: Compound (3 mpk) was tested for reduction in glucose excursion in mice by using oral glucose tolerance test (OGTT) after 1 hour; type: functional
[7] = Oral bioavailability (F) in dogs; type: ADME, organism-based, Canis lupus familiaris; details: dog, in vivo

Voltage-gated inwardly rectifying potassium channel KCNH2, sequence (Q12809 whole entry): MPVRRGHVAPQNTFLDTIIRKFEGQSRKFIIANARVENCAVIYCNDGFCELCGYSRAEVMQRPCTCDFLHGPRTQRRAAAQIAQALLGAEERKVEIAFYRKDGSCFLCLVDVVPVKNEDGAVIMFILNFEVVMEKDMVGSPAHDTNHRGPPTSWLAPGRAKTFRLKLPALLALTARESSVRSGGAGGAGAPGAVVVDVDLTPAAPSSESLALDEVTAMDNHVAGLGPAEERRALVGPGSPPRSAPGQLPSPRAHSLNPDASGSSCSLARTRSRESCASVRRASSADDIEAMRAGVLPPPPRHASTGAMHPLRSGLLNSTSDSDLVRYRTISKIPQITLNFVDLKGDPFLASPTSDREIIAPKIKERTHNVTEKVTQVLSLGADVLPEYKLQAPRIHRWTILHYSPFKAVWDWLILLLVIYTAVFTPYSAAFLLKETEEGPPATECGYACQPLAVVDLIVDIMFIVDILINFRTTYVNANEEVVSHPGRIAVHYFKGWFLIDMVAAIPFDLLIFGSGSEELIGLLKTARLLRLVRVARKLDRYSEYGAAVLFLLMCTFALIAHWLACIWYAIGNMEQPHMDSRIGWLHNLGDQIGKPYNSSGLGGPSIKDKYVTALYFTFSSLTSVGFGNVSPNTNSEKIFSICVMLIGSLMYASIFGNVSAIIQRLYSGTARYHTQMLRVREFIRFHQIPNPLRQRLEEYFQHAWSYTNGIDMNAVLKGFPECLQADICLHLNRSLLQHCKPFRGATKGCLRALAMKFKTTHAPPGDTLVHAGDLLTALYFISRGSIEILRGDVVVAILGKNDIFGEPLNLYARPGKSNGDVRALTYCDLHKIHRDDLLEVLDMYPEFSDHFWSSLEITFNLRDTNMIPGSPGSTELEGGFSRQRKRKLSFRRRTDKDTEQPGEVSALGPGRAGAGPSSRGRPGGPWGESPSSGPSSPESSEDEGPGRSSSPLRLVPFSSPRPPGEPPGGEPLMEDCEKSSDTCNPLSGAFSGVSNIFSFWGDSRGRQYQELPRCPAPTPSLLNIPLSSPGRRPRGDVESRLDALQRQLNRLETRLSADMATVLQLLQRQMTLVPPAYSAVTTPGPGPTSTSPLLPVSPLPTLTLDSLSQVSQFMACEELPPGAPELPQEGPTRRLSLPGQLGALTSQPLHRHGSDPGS

N[C@H](C(=O)N1CCCC1)[C@H]1CC[C@H](NC(=O)c2cccc3ccccc23)CC1
Ki [1]: 17 µM
clearance [2]: 13 mL/min/kg
half-life [3]: 138 min
bioavailability [4]: 30%
IC50 (Dipeptidyl peptidase 2): 8600 nM
IC50 (Dipeptidyl peptidase 4): 46 nM

N[C@H](C(=O)N1CCCC1)[C@H]1CC[C@H](NS(=O)(=O)c2ccc(NS(=O)(=O)CC(F)(F)F)cc2)CC1
Ki [1]: > 100 µM
clearance [2]: 95 mL/min/kg
half-life [3]: 6 min
bioavailability [4]: 0%
IC50 (Dipeptidyl peptidase 2): 15000 nM

N[C@H](C(=O)N1CCSC1)[C@H]1CC[C@H](NC(=O)c2cccc3ccccc23)CC1
Ki [1]: 22 µM
clearance [2]: 22 mL/min/kg
half-life [3]: 72 min
bioavailability [4]: 51%
IC50 (Dipeptidyl peptidase 2): 900 nM
IC50 (Dipeptidyl peptidase 4): 15 nM

N[C@H](C(=O)N1CCCC1)[C@H]1CC[C@H](NS(=O)(=O)c2ccc(F)cc2F)CC1
clearance [2]: 53 mL/min/kg
half-life [5]: 360 min
half-life [3]: 108 min
clearance [6]: 14 mL/min/kg
Reduction (Mus musculus): 36%
bioavailability [4]: 36%
bioavailability [7]: 100%

N[C@H](C(=O)N1CCSC1)[C@H]1CC[C@H](NC(=O)OCc2ccc3ccccc3c2)CC1
IC50 (Dipeptidyl peptidase 2): 200 nM
IC50 (Dipeptidyl peptidase 4): 20 nM

CN(C)C(=O)Nc1ccc(S(=O)(=O)N[C@H]2CC[C@H]([C@H](N)C(=O)N3CCSC3)CC2)cc1
IC50 (Dipeptidyl peptidase 2): 2000 nM
IC50 (Dipeptidyl peptidase 4): 7.5 nM

N#Cc1cccc(S(=O)(=O)N[C@H]2CC[C@H]([C@H](N)C(=O)N3CCSC3)CC2)c1
IC50 (Dipeptidyl peptidase 2): 820 nM
IC50 (Dipeptidyl peptidase 4): 24 nM

N[C@H](C(=O)N1CCSC1)[C@H]1CC[C@H](NC(=O)OCc2ccc(Cl)c(Cl)c2)CC1
IC50 (Dipeptidyl peptidase 2): 170 nM
IC50 (Dipeptidyl peptidase 4): 29 nM

N[C@H](C(=O)N1CCSC1)[C@H]1CC[C@H](NC(=O)Nc2ccc(I)cc2)CC1
Ki [1]: 1.9 µM
clearance [2]: 74 mL/min/kg
half-life [3]: 138 min
bioavailability [4]: 12%
IC50 (Dipeptidyl peptidase 2): 210 nM
IC50 (Dipeptidyl peptidase 4): 10 nM

N[C@H](C(=O)N1CCSC1)[C@H]1CC[C@H](N)CC1
IC50 (Dipeptidyl peptidase 4): 2700 nM

N[C@H](C(=O)N1CCSC1)[C@H]1CC[C@H](NC(=O)Nc2ccc(OC(F)(F)F)cc2)CC1
IC50 (Dipeptidyl peptidase 2): 350 nM
IC50 (Dipeptidyl peptidase 4): 55 nM

N[C@H](C(=O)N1CCSC1)[C@H]1CC[C@H](NC(=O)c2cnc3ccccc3c2)CC1
IC50 (Dipeptidyl peptidase 2): 230 nM
IC50 (Dipeptidyl peptidase 4): 9 nM

N[C@H](C(=O)N1CCCC1)[C@H]1CC[C@H](NS(=O)(=O)c2ccc(OC(F)(F)F)cc2)CC1
clearance [2]: 31 mL/min/kg
half-life [3]: 216 min
bioavailability [4]: 38%

N[C@H](C(=O)N1CCSC1)[C@H]1CC[C@H](NC(=O)c2ccc(Cl)c(Cl)c2)CC1
IC50 (Dipeptidyl peptidase 2): 230 nM
IC50 (Dipeptidyl peptidase 4): 38 nM

N[C@H](C(=O)N1CCSC1)[C@H]1CC[C@H](NS(=O)(=O)c2ccc3ccccc3c2)CC1
IC50 (Dipeptidyl peptidase 2): 170 nM
IC50 (Dipeptidyl peptidase 4): 18 nM

CN(C)C(=O)Nc1ccc(S(=O)(=O)N[C@H]2CC[C@H]([C@H](N)C(=O)N3CCCC3)CC2)cc1
clearance [2]: 21 mL/min/kg
half-life [3]: 144 min
bioavailability [4]: 1%
IC50 (Dipeptidyl peptidase 2): 12000 nM
IC50 (Dipeptidyl peptidase 4): 26 nM

N[C@H](C(=O)N1CCSC1)[C@H]1CC[C@H](NS(=O)(=O)c2ccc(F)c(F)c2F)CC1
IC50 (Dipeptidyl peptidase 2): 960 nM
IC50 (Dipeptidyl peptidase 4): 24 nM

N[C@H](C(=O)N1CCSC1)[C@H]1CC[C@H](NS(=O)(=O)c2ccc(I)cc2)CC1
IC50 (Dipeptidyl peptidase 2): 280 nM
IC50 (Dipeptidyl peptidase 4): 23 nM

N[C@H](C(=O)N1CCSC1)[C@H]1CC[C@H](NC(=O)OCc2cccc3ccccc23)CC1
IC50 (Dipeptidyl peptidase 2): 170 nM
IC50 (Dipeptidyl peptidase 4): 17 nM

N[C@H](C(=O)N1CCCC1)[C@H]1CC[C@H](NC(=O)OCc2ccccc2)CC1
clearance [2]: 28 mL/min/kg
half-life [3]: 240 min
bioavailability [4]: 52%

N[C@H](C(=O)N1CCSC1)[C@H]1CC[C@H](NC(=O)c2ccc(F)c(F)c2)CC1
clearance [2]: 30 mL/min/kg
half-life [3]: 120 min
bioavailability [4]: 81%

N[C@H](C(=O)N1CCCC1)[C@H]1CC[C@H](NS(=O)(=O)c2ccc(F)c(F)c2F)CC1
IC50 (Dipeptidyl peptidase 2): 8200 nM
IC50 (Dipeptidyl peptidase 4): 98 nM

N#Cc1ccc(NCCNCC(=O)N2CCC[C@H]2C#N)nc1
IC50 (Dipeptidyl peptidase 2): 6600 nM

N[C@H](C(=O)N1CCSC1)[C@H]1CC[C@H](NC(=O)Nc2ccc(Cl)c(Cl)c2)CC1
IC50 (Dipeptidyl peptidase 2): 170 nM
IC50 (Dipeptidyl peptidase 4): 17 nM

N[C@H](C(=O)N1CCSC1)[C@H]1CC[C@H](NC(=O)c2ccc3ccccc3c2)CC1
IC50 (Dipeptidyl peptidase 2): 230 nM
IC50 (Dipeptidyl peptidase 4): 21 nM

N[C@H](C(=O)N1CCSC1)[C@H]1CC[C@H](NC(=O)c2ccc(I)cc2)CC1
IC50 (Dipeptidyl peptidase 2): 340 nM
IC50 (Dipeptidyl peptidase 4): 33 nM

N[C@H](C(=O)N1CCSC1)[C@H]1CC[C@H](NC(=O)Nc2ccc(F)c(F)c2)CC1
IC50 (Dipeptidyl peptidase 2): 380 nM
IC50 (Dipeptidyl peptidase 4): 35 nM

N[C@H](C(=O)N1CCSC1)[C@H]1CC[C@H](NS(=O)(=O)c2ccc(OC(F)(F)F)cc2)CC1
clearance [2]: 21 mL/min/kg
half-life [3]: 282 min
bioavailability [4]: 85%
